# Measured values taken from patent US20250353858A1, “CONDENSED HETEROCYCLIC COMPOUNDS AS INHIBITOR OF DIACYLGLYCEROL KINASES” (BEONE MEDICINES I GMBH, priority 2023, published 2025).
# Experiments:
# DGKζ = DGKζ (Homo sapiens (Human), UniProt Q13574); experiment: Biochemical DGK IC50 assay (ADP-Glo, lipid micelle substrate), DGKζ; details: full length DGKζ 0.5 nM, ATP 140 μM, DAG 80 μM
# Procedure: (§1) Enzymatic reactions of DGKζ, DGKα and DGKδ were performed using ADP-Glo assay with lipid micelle substrate. […] Full length DGKα (D21-10BG, SignalChem) and full length DGKδ (D23-10G, SignalChem) were purchased. Lipid micelle was prepared by dissolving DAG (Sigma, 317505-10MG) and PS (Sigma, P7769-100MG) with chloroform which was furtherly removed by rotary evaporation. The resulted product was resuspended in buffer containing 25 mM HEPES pH 7.0, 0.5 mM EDTA and 160 mM Octyl β-D glucopyranoside by vigorous mixing and ultrasonic (IID, Scientz).
# (§2) The inhibition activities testing for the compound disclosed herein were carried out at room temperature in assay buffer containing 50 mM HEPES, 10 mM MgCl2, 0.01% BSA, 0.1 mM Na3VO4, 0.005% Tween-20 and 0.01 mM CaCl2. Compounds in DMSO were dispensed into wells of a black 384 well plate (Corning 4514) using D300e digital dispenser (Tecan). […] 3 μL 2× enzyme solution was added to wells. […] After 1 hour reaction, 5 μL ADP-Glo reagent (Promga V9101) was added and incubated for 40 minutes. 10 μL Kinase Detection reagent was added and incubated for 30 minutes. Luminescence was measured on a microplate reader (PHERAstar FSX, BMG labtech). The IC50s are calculated based on inhibition of enzyme activity in the presence of increasing concentrations of compounds.
# Human His-TEV-DGK-zeta-pFastBac1 and human baculovirus samples was generated using the Bac-to-Bac baculovirus expression system (Invitrogen) according to the manufacturer's protocol. The DNA used for expression of DGK-zeta, have SEQ ID Nos: 1. Baculovirus amplification was achieved using infected SF9 cells at 1:2000 virus/cells ratios, and grown for 96 hours at 27° C. post-transfected.
# Full length human DGKζ produced as described above, was purified from Sf9 baculovirus-infected insect cell paste. The cells were lysed using sonication method, and the lysates were clarified by centrifugation.
# DGKα = DGKα (Homo sapiens (Human), UniProt P23743); experiment: Biochemical DGK IC50 assay (ADP-Glo, lipid micelle substrate), DGKα; details: full length DGKα […], ATP 140 μM, DAG 80 μM; note: full length DGKα 7.5 nM
# Sequence of DGKα (P23743 whole entry): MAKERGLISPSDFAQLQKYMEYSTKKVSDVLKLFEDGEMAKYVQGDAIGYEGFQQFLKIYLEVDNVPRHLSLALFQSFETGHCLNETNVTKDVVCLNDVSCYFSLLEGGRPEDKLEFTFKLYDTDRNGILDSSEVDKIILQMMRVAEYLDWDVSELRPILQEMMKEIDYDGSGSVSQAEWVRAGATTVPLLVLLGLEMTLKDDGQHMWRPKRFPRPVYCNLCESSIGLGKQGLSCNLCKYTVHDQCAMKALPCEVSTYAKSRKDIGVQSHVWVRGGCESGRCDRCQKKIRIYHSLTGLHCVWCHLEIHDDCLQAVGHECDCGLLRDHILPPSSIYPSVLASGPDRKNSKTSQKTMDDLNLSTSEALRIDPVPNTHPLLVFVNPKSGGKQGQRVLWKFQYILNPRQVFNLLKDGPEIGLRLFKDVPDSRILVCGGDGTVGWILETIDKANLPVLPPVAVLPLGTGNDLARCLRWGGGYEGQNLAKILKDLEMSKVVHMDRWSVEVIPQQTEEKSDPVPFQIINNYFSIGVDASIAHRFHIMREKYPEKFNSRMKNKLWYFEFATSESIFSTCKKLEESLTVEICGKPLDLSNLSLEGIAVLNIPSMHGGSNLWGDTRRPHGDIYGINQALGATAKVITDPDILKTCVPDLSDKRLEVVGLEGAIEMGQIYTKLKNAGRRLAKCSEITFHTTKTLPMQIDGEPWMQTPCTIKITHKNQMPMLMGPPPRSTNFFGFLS
# Procedure: as §1, §2
# Sequence of DGKζ (Q13574 other isoform, or with tags, fused parts or gaps): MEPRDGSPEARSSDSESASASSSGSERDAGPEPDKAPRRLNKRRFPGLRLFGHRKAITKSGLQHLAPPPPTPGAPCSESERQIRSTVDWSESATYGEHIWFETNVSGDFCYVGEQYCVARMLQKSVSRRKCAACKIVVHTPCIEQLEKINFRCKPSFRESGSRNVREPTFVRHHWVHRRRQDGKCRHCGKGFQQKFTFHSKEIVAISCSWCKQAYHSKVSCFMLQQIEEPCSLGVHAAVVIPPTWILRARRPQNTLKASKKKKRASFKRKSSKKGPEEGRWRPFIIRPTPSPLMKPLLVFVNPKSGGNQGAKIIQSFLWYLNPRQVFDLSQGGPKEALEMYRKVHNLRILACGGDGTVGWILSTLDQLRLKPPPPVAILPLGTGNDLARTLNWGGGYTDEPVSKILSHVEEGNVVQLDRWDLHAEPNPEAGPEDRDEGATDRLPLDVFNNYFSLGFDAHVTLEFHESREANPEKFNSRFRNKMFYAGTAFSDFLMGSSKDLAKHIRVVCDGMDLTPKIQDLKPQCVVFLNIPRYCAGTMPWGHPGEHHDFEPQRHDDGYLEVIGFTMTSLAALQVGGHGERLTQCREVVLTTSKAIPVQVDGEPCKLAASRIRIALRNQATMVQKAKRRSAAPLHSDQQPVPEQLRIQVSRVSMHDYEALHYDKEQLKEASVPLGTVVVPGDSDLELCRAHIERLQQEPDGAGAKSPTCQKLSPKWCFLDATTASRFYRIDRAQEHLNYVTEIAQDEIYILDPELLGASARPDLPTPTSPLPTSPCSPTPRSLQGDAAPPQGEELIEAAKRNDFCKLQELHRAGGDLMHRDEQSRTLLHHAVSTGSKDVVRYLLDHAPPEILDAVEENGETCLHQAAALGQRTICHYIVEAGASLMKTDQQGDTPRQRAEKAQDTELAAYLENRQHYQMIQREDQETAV
IC50 (DGKζ) [nM],IC50 (DGKα) [nM],Structure (SMILES)
38,111,"CC[C@H]1CN(C(C)c2ccn3nc(Cl)c(F)c3n2)[C@H](CC)CN1c1nc(=O)n(C)c2cc(CC#N)nn12 (stereo partly drawn) [Compound A59, 2-(4-((2S,5R)-4-(1-(2-chloro-3-fluoropyrazolo[1,5-a]pyrimidin-5-yl)ethyl)-2,5-diethylpiperazin-1-yl)-1-methyl-2-oxo-1,2-dihydropyrazolo[1,5-a][1,3,5]triazin-7-yl)acetonitrile]"
40,63,"CC[C@H]1CN(C(C)c2ccn3nc(F)c(F)c3n2)[C@H](CC)CN1c1nc(=O)n(C)c2cc(CC#N)nn12 (stereo partly drawn) [Compound A60, 2-(4-((2S,5R)-4-(1-(2,3-difluoropyrazolo[1,5-a]pyrimidin-5-yl)ethyl)-2,5-diethylpiperazin-1-yl)-1-methyl-2-oxo-1,2-dihydropyrazolo[1,5-a][1,3,5]triazin-7-yl)acetonitrile]"
